Like-named read-outs stand apart in the source and are kept apart here.
What was measured:
[1] = target: T1, CaGP (Caldithrix abyssi, UniProt H1XSN4); experiment: phosphomolybdate assay and HPAEC-PAD, synthesis direction; type: biochemical; conditions: 50 mM MOPS pH 7.0
T1 construct: gene Calab_2975; codon-optimized gene in pET21a, C-terminal His6-tag, expressed in E. coli BL21(DE3) agp-, Ni-NTA purified; GH65 subgroup 22

[2] = target: T2, MiGP (Mageeibacillus indolicus, UniProt D3R1R5); experiment: as above; type: biochemical; conditions: acceptor, minor activity; donor 10 mM βGlc1P; 50 mM MOPS pH 7.0
T2 construct: gene HMPREF0868_0806; codon-optimized gene in pET21a, C-terminal His6-tag, expressed in E. coli BL21(DE3) agp-, Ni-NTA purified; GH65 subgroup 6
T2 sequence (D3R1R5 1-712): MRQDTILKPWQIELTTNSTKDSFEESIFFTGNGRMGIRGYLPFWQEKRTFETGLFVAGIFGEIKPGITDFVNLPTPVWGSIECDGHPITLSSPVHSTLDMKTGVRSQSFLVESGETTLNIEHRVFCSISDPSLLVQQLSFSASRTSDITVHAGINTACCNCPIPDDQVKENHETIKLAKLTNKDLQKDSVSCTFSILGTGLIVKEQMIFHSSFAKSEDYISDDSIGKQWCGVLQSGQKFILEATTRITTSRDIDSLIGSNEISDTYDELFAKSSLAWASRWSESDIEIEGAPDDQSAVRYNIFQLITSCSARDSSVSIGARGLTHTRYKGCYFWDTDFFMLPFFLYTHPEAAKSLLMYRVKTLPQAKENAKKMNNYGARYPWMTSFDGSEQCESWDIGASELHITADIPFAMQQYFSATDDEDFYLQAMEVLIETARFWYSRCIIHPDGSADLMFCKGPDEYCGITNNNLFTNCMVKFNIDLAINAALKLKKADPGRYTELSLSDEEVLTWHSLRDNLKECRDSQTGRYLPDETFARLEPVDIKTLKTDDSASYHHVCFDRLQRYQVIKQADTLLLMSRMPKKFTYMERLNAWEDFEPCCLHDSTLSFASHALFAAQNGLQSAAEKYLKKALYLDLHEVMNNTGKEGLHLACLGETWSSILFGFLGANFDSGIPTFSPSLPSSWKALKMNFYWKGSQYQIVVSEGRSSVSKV

[3] = target: T3, TbGP (Thermobispora bispora, UniProt D6Y6U5); experiment: as above; type: biochemical; conditions: 50 mM MOPS pH 7.0, trehalose formed
T3 construct: gene Tbis_2887; codon-optimized gene in pET21a, C-terminal His6-tag, expressed in E. coli BL21(DE3) agp-, Ni-NTA purified; GH65 subgroup 1
T3 sequence (D6Y6U5 entry or part of it): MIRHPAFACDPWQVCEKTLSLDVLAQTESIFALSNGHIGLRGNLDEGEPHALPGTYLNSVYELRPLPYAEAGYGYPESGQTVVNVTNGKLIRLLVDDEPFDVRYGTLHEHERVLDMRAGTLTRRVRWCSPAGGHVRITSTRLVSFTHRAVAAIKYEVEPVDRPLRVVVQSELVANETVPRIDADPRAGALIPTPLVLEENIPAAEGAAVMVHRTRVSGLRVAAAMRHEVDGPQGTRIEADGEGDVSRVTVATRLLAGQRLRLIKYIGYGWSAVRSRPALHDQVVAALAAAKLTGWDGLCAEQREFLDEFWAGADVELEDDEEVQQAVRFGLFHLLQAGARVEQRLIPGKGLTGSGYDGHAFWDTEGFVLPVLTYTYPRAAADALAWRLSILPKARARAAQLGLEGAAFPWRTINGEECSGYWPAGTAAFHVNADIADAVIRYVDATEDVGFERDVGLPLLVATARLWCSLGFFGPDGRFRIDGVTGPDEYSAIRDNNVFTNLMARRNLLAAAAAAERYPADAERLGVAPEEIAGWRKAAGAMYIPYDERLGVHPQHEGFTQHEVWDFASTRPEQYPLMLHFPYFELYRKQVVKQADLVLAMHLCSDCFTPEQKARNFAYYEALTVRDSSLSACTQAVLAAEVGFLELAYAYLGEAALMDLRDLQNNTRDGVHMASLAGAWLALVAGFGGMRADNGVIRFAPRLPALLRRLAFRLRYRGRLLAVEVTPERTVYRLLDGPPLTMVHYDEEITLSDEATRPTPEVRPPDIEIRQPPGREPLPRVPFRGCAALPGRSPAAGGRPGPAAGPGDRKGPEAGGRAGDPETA

[4] = target: T4, HoGP (Halothermothrix orenii, UniProt B8D049); conditions: 50 mM MOPS pH 7.0
T4 construct: gene Hore_00420
T4 sequence (B8D049 whole entry): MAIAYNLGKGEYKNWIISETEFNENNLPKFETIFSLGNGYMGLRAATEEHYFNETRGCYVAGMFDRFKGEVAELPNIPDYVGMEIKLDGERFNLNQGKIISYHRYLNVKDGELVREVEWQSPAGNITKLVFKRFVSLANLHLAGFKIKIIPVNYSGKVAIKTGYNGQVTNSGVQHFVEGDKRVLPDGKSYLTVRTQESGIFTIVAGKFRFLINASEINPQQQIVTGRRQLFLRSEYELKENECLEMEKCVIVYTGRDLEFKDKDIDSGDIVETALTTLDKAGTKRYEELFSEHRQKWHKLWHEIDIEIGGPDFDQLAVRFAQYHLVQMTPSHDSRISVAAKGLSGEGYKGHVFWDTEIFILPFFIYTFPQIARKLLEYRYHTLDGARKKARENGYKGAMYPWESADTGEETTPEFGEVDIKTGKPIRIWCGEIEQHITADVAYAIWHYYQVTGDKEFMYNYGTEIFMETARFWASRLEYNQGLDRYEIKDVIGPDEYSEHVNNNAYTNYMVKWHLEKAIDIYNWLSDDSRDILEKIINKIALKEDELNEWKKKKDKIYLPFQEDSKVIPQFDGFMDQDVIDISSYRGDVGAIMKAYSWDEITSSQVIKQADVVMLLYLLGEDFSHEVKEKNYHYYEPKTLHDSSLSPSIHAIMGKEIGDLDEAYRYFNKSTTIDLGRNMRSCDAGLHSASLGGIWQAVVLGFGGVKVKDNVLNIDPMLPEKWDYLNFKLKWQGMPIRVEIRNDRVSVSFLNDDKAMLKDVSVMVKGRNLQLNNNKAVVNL

[5] = target: T5, ChGP (Caldicellulosiruptor hydrothermalis, UniProt E4Q9G1); experiment: phosphomolybdate assay and HPAEC-PAD, synthesis direction; type: biochemical; conditions: acceptor; donor βGlc1P; 50 mM MOPS pH 7.0
T5 construct: gene Calhy_0070; codon-optimized gene in pET21a, C-terminal His6-tag, expressed in E. coli BL21(DE3) agp-, Ni-NTA purified; GH65 subgroup 4
T5 sequence (E4Q9G1 entry or part of it): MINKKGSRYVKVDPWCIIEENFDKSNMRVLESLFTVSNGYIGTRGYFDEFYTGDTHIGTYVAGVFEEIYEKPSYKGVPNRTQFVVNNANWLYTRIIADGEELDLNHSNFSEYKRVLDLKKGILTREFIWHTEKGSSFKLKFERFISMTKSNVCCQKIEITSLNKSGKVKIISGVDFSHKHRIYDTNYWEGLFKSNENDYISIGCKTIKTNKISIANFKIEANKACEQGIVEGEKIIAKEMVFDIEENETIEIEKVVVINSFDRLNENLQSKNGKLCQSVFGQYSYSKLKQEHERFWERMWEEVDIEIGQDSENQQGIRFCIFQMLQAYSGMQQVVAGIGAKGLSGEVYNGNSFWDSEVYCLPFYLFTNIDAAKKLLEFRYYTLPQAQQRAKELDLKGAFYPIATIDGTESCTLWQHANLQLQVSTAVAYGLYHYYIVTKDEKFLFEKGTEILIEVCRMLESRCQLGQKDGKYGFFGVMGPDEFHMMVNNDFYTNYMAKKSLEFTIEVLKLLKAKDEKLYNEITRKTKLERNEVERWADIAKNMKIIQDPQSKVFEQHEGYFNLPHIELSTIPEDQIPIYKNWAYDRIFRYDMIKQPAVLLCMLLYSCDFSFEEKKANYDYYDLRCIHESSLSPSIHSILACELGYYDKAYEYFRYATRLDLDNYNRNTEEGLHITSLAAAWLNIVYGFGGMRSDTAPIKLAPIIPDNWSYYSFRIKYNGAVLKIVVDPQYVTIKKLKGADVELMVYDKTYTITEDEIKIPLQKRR

T1 sequence (H1XSN4 entry or part of it): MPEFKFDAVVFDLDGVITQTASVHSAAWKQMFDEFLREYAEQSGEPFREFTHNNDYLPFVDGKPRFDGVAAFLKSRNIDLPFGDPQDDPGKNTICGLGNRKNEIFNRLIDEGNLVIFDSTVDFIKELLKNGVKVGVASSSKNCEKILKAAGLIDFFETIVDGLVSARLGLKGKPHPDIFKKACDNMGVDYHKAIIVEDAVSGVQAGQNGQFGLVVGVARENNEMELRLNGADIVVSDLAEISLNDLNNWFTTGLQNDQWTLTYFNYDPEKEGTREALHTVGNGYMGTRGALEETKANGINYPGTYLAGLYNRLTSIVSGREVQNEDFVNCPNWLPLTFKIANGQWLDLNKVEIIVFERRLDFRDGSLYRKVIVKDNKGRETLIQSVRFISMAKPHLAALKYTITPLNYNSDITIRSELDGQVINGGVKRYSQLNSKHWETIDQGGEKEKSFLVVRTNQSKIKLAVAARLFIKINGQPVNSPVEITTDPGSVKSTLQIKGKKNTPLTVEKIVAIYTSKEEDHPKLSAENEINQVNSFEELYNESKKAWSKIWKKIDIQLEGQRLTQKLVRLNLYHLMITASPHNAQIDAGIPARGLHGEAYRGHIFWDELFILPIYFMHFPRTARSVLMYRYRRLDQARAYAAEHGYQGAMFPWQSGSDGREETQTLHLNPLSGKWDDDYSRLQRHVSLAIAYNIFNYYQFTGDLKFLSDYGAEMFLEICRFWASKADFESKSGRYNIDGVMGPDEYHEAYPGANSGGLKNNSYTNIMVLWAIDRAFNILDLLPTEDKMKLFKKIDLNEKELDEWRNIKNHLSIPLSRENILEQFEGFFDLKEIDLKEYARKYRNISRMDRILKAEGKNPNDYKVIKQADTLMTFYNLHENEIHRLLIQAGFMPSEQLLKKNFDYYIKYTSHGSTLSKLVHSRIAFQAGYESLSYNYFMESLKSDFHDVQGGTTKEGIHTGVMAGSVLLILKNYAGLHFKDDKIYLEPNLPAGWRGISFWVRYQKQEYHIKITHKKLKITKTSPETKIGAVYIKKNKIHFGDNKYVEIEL

O=P(O)(O)OC[C@H]1OC(O)[C@H](O)[C@@H](O)[C@@H]1O (some centres unmarked) [glucose 6-phosphate]
phosphomolybdate assay and HPAEC-PAD, synthesis direction ([1]; donor βGlc1P): trehalose 6-phosphate was produced from βGlc1P and glucose 6-phosphate

OC[C@H]1OC(O)[C@H](O)[C@@H](O)[C@@H]1O (some centres unmarked) [glucose]
phosphomolybdate assay and HPAEC-PAD, synthesis direction [2]: Apart from minor activity on glucose and galactose, MiGP prefers α-glucosidic disaccharides | phosphomolybdate assay and HPAEC-PAD, synthesis direction ([3]; donor βGlc1P): In a reaction mixture of glucose and βGlc1P, TbGP produced trehalose

OC[C@H]1O[C@H](O[C@H]2C(O)O[C@H](CO)[C@@H](O)[C@@H]2O)[C@H](O)[C@@H](O)[C@@H]1O (some centres unmarked) [kojibiose]
phosphomolybdate assay and HPAEC-PAD, synthesis direction ([4]; phosphorolysis and acceptor with βGlc1P): both breaking kojibiose down to glucose and βGlc1P and using it as acceptor

OC[C@H]1O[C@H](O[C@H]2[C@H](O)[C@@H](CO)OC(O)[C@@H]2O)[C@H](O)[C@@H](O)[C@@H]1O (some centres unmarked) [nigerose]
phosphomolybdate assay and HPAEC-PAD, synthesis direction [5]: ChGP elongated nigerose, and other disaccharides, to form α-1,3-oligoglucans

O=P(O)(O)O[C@@H]1O[C@H](CO)[C@@H](O)[C@H](O)[C@H]1O [βGlc1P]
phosphomolybdate assay and HPAEC-PAD, synthesis direction ([3]; acceptor glucose): In a reaction mixture of glucose and βGlc1P, TbGP produced trehalose | phosphomolybdate assay and HPAEC-PAD, synthesis direction ([1]; acceptor glucose 6-phosphate): trehalose 6-phosphate was produced from βGlc1P and glucose 6-phosphate | phosphomolybdate assay and HPAEC-PAD, synthesis direction ([4]; acceptor kojibiose): In a reaction mixture that contained both kojibiose and βGlc1P, phosphorolytic and synthetic reactions co-occur

Reference: article PMC8537180, “Discovery of a Kojibiose Hydrolase by Analysis of Specificity-Determining Correlated Positions in Glycoside Hydrolase Family 65” (Molecules, 2021)
